Where two headings read alike, the source gives them in different places.
Columns and labels:
[1] = Cytotoxicity: 50% extinction of HB611 cells; type: cell-based; details: human, read-out: 50% cytotoxic concentration against HB611 cells
Procedure: (§1) HBV growth inhibitory activities of the compounds of the present invention were measured by a conventional method (K. Ueda, et al., Virology, 169, pp.213-216, 1989). HB611 cells (2×10^4, recombinant human hepatocellular carcinoma cells producing HBV) were cultured in Dulbecco ME medium containing 10% fetal bovine serum, streptomycin (100 μg/ml), penicillin (100 IU/ml), and Geneteicin (trade name, the antibiotic manufactured by Life Technologies, Co., Ltd., 0.2 mg/ml) at 37° C. The medium was changed with fresh medium on the second day and fifth day of the culture, and then the medium was changed with a medium containing a test compound at a final concentration of […] after 8, 11, and 14 days of the culture. Total cellular DNAs were collected on the 17th day of the culture. Amounts of the HBV-DNAs in the cells were measured by the Southern blotting method, and concentrations achieving 50% inhibition of cytoplasmic HBV-DNA synthesis were determined. concentrations of compounds required for 50% extinction of HB611 cells were also determined.

[2] = test system: Hepatitis B virus (HBV); test: HBV growth inhibition: inhibition of cytoplasmic HBV-DNA synthesis in HB611 cells (Southern blotting); type: cell-based
Procedure: Inhibitory activity against the growth of Hepatitis B virus (HBV)
as §1

[3] = test system: herpes simplex type 2 virus (HSV-2); details: literature; cited from earlier work
[4] = test system: human hepatitis B virus (HBV); details: literature; cited from earlier work
[5] = test system: herpes simplex type 1 virus (HSV-1); details: literature; cited from earlier work
[6] = test system: human immunodeficiency virus (HIV); details: literature; cited from earlier work
[7] = test system: Hepatitis B virus (HBV); test: HBV growth inhibitory activity of mouse serum after oral administration (HB611 cells); type: cell-based; details: serum 5% (V/V) in HB611 cell medium
Procedure: HBV growth inhibitory activity of mouse serum after oral administration
Groups of mice each consisting of three mice were administered orally with a test compound at a single dose of 1 g/kg or 0.3 g/kg. Blood was collected 30 minutes after the administration, and serum was prepared. HB611 cells (2×10^4, recombinant human hepatocellular carcinoma cells producing HBV) were cultured in Dulbecco ME medium containing 10% fetal bovine serum, streptomycin (100 μg/ml), penicillin (100 IU/ml), and Geneteicin (trade name, the antibiotic manufactured by Life Technologies, Co., Ltd., 0.2 mg/ml) at 37° C. The medium was changed with fresh medium on the second day and fifth day of the culture, and then the medium was changed with a medium containing a test serum at a final concentration of 5% (V/V) after 8, 11, and 14 days of the culture. Total cellular DNAs were collected on the 17th day of the culture. Amounts of the HBV-DNAs in the cells were measured by the Southern blotting method, and rates of inhibition of cytoplasmic HBV-DNA synthesis were determined. As a reference, a similar test was carried out using PMEA.

[8] = HB611 cells, compound in medium after 8, 11 and 14 days, DNA collected on 17th day, read-out: 50% inhibitory concentration against HBV-DNA synthesis
[9] = mouse serum 30 minutes after single oral dose of 0.3 g/kg

## COc1ccccc1Sc1nc(N)nc2c1ncn2CCOCP(=O)(OCC(F)(F)F)OCC(F)(F)F [Compound No. 2, 2-amino-9-[2-[bis(2,2,2-trifluoroethyl)-phosphonylmethoxy]ethyl]-6-o-methoxyphenylthiopurine]
[1]
  CC50: > 1000 µM
[2]; [8]
  IC50: 0.08 µM

## Nc1nc(N)c2ncn(CCOCP(=O)(O)O)c2n1 [PMDAP, 9-(2-phosphonylmethoxy)ethyl-2,6-diaminopurine]
[3]
  reported as being effective against HSV-2: effective
[4]
  reported as being effective against HBV: effective
[5]
  reported as being effective against HSV-1: effective
[6]
  reported as being effective against HIV: effective

## Cc1ccc(Sc2nc(N)nc3c2ncn3CCOCP(=O)(OCC(F)(F)F)OCC(F)(F)F)cc1 [Reference 2, 9-[2-[bis(2,2,2-trifluoroethyl)phosphonylmethoxy]ethyl]-2-amino-6-p-toluylthiopurine]
[1]
  CC50: 108 µM
[2]; [8]
  IC50: 0.06 µM

## Nc1nc(Sc2ccccc2)c2ncn(CCOCP(=O)(OCC(F)(F)F)OCC(F)(F)F)c2n1 [Compound No. 1, 2-amino-9-[2-[bis(2,2,2-trifluoroethyl)-phosphonylmethoxy]ethyl]-6-phenylthiopurine]
[1]
  CC50: > 1000 µM
[7]; [9]
  Inhibitory rate against HBV-DNA synthesis: 60.7%
[2]; [8]
  IC50: 0.01 µM

## COc1cccc(Sc2nc(N)nc3c2ncn3CCOCP(=O)(OCC(F)(F)F)OCC(F)(F)F)c1 [Compound No. 3, 2-amino-9-[2-[bis(2,2,2-trifluoroethyl)-phosphonylmethoxy]ethyl]-6-m-methoxyphenylthiopurine]
[1]
  CC50: > 1000 µM
[2]; [8]
  IC50: 0.04 µM

## CC(C)(C)C(=O)OCOP(=O)(COCCn1cnc2c(N)ncnc21)OCOC(=O)C(C)(C)C [Reference 1, dipivaloyloxymethyl ester of PMEA]
[1]
  CC50: 11 µM
[2]; HB611, read-out: 50% inhibitory concentration against HBV-DNA synthesis
  IC50: 18.8 µM

## Nc1ncnc2c1ncn2CCOCP(=O)(O)O [PMEA, 9-(2-phosphonylmethoxy) ethyladenine]
[3]
  reported as being effective against HSV-2: effective
[4]
  reported as being effective against HBV: effective
[5]
  reported as being effective against HSV-1: effective
[7]; mouse serum 30 minutes after single oral dose of 1.0 g/kg
  Inhibitory rate against HBV-DNA synthesis: 35.5%
[6]
  reported as being effective against HIV: effective

## COc1ccc(Sc2nc(N)nc3c2ncn3CCOCP(=O)(OCC(F)(F)F)OCC(F)(F)F)cc1 [Compound No. 4, 2-amino-9-[2-[bis(2,2,2-trifluoroethyl)-phosphonylmethoxy]ethyl]-6-p-methoxyphenylthiopurine]
[1]
  CC50: > 1000 µM
[7]; [9]
  Inhibitory rate against HBV-DNA synthesis: 95.2%
[2]; [8]
  IC50: 0.05 µM
